From article PMC11219871, “Epigenetic-based differentiation therapy for Acute Myeloid Leukemia” (Nature Communications, 2024)
pIC50: −log10 of the molar value.

What was measured:
HDAC1 = HDAC1 (Homo sapiens, UniProt Q13547); experiment: HDAC enzymatic assay, fluorescence-labeled substrate; assay type: biochemical; details: read-out: HDAC1 IC50
HDAC6 = target: T1, HDAC6 (Homo sapiens, UniProt Q9UBN7); experiment: as above; assay type: biochemical; details: read-out: HDAC6 IC50
T1 sequence (Q9UBN7 1-1215): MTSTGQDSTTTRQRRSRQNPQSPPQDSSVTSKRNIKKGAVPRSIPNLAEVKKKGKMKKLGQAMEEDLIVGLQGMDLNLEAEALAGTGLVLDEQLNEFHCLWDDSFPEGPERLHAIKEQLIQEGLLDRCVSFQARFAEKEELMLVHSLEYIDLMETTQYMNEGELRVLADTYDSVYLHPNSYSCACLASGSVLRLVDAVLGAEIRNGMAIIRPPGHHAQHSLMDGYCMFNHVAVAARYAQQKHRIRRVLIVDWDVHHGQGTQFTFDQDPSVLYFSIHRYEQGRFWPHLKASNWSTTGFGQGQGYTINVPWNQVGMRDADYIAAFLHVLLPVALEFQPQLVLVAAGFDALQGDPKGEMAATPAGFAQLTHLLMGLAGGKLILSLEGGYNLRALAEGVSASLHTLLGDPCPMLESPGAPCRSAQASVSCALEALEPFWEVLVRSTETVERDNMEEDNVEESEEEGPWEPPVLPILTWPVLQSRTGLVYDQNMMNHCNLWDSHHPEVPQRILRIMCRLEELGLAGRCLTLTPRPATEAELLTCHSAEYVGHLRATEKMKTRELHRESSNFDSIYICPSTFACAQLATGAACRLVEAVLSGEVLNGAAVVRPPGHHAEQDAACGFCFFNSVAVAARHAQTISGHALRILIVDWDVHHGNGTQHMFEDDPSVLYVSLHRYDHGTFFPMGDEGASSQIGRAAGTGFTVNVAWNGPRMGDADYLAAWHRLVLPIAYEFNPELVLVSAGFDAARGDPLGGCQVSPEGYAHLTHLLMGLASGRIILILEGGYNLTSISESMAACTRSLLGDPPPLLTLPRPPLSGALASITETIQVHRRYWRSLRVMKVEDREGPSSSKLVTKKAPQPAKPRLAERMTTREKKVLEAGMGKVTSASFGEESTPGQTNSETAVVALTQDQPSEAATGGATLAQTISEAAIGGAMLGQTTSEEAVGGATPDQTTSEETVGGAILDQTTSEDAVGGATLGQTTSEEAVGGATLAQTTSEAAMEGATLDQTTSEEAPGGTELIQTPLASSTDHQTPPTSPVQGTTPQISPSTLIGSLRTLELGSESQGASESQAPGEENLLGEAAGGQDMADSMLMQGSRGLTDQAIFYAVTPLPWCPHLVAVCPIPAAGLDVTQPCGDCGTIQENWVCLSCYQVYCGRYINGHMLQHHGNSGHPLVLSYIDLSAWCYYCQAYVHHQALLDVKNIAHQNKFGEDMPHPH

HL-60 [1] = experiment: Cell proliferation assay: GI50; assay type: cell-based, human; details: 48 h; read-out: HL-60 GI50
Experimental: Cell proliferation was analyzed using the CellTiter 96 Aqueous One Solution Cell Proliferation Assay (Promega, Madison, WI). This is a colorimetric method for determining the number of viable cells in proliferation. For the assay, suspension cells were cultured in triplicate at a density of 1 × 10^6 cells/mL in 96-well plates (100.000 cells/well, 100 µL/well), using only the 60 inner wells to avoid any border effects. […] Then, the cells were incubated with 100 μL/well of medium and 20 μL/well of CellTiter 96 Aqueous One Solution reagent for 1–3 h. […] The background absorbance was measured in wells with only cell line medium and solution reagent. First, the average of the absorbance from the control wells was subtracted from all other absorbance values. Data were calculated as the percentage of total absorbance of treated cells/absorbance of non-treated cells. The GI50 values of the different compounds were determined using non-linear regression plots made with GraphPad Prism v5 software.

HL-60 [2] = experiment: Differentiation-apoptosis assay, CD11b / annexin-V / Sytox Green / myeloid markers flow cytometry; assay type: cell-based, human; details: HL-60, daily 25% GI50, 48 h; for Annexin V + (%) / CD11b+ (%): mean of three
Experimental: Next, the cells were washed twice with phosphate-buffered saline (PBS) and resuspended in 1X Binding Buffer at a concentration of 1 × 10^6 cells/mL. […] Finally, after the addition of 400 µL of 1X Binding Buffer to each tube, samples were collected on a BD FACSCanto flow cytometer (Becton Dickinson, San Jose, CA, USA) and analyzed using FlowJo software.
Then, 1 million cells (volume of 250 µL) were added and incubated for 30 min at room temperature in darkness. After 10 min incubation at room temperature with 2 mL of FACSLysing 1X, cells were centrifuged at 540 g for 5 min and washed twice with FACSBuffer. Finally, after centrifugation at 540 g for 5 min cells were resuspended in FACSBuffer.

Chain of HDAC1 (Q13547 whole entry): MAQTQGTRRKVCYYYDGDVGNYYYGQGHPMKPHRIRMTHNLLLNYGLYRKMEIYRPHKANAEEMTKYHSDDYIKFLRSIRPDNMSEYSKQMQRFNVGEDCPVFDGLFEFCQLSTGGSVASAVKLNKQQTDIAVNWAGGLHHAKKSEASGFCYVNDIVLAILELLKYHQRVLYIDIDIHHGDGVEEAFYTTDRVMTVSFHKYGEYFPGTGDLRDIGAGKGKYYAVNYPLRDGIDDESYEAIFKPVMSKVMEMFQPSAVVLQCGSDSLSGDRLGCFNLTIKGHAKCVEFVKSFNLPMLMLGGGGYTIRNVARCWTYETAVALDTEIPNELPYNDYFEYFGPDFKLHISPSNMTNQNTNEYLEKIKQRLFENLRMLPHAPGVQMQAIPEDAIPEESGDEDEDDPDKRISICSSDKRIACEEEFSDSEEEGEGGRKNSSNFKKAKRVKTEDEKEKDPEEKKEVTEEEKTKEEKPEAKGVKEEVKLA

SMILES	pIC50 (HDAC1)	pIC50 (HDAC6)	GI50 (HL-60 [1])	Annexin V (%) Replicate 1 (HL-60 [2])	Annexin V (%) Replicate 2 (HL-60 [2])	Annexin V (%) Replicate 3 (HL-60 [2])	CD11b (%) Replicate 1 (HL-60 [2])	CD11b (%) Replicate 2 (HL-60 [2])	CD11b (%) Replicate 3 (HL-60 [2])	Annexin V + (%) (HL-60 [2])	CD11b+ (%) (HL-60 [2])
COc1cc2c(NC3CCN(C)CC3)cc(-c3ccc(C)o3)nc2cc1OCCCN1CCCC1 [CM-272]	< 4.70	< 4.70	2.9 µM	1.02%	1.64%	1.88%	1.50%	0.87%	0.44%	1.51%	0.94%
COc1cc2c(NCC3CCN(C)CC3)cc(-c3ccc(C)o3)nc2cc1OCCCN1CCCC1 [CM-579]	< 4.70	< 4.70	> 10 µM	0.00%	0.00%	0.00%	0.00%	0.00%	0.00%	0.00%	0.00%
